From patent publication US7718700B2, “Growth factor-binding compounds and methods of use” (Yale University, priority 2004, dated 2010)

Key:
[1] = system: EGF-stimulated Erk1, Erk2, Akt and STAT3 phosphorylation; assay: EGF-stimulated phosphorylation of Erk1/2, Akt and STAT3 in EGFR/NIH 3T3 cells; assay type: cell-based, mouse; conditions: GFB204 10 μM
Method: (§1) FIGS. 3A and 3B show the effect of GFB204 on growth factor stimulated Erk1, Erk2, Akt, and STAT3 phosphorylation. GFB204 inhibits VEGF and PDGF stimulation of Flk-1 tyrosine phosphorylation and Erk1/Erk2 phosphorylation (FIG. 3A). NIH 3T3 cells or Flk-1/NIH 3T3 cells were treated with increasing concentrations of GFB204 for 5 minutes prior to stimulation with PDGFBB (10 ng/ml) or VEGF (50 ng/ml), respectively, for 10 minutes. The cells were then lysed and processed for SDS-PAGE Western blotting with an antibody specific for phosphotyrosine-Flk-1 or anti-phosphotyrosine for PDGFR tyrosine phosphorylation or phospho-Erk1/2. GFB204 effects on growth factor-stimulated Erk1, Erk2, Akt and STAT3 phosphorylation (FIG. 3B). NIH 3T3, Flk-1/NIH 3T3, IGF-1R/NIH 3T3 or EGFR/NIH 3T3 cells were treated with GFB204 (10 μM) prior to stimulation with PDGF (NIH 3T3) VEGF (Flk-1/NIH 3T3), EGF (EGFR/NIH 3T3), bFGF (NIH 3T3) or IGF-1 (IGF-1R/NIH 3T3). The cells were then harvested and processed for SDS-PAGE Western blotting with antibodies specific for phospho-Erk1/2, phospho-Akt and phospho-STAT3.
(§2) Growth factor-mediated stimulation of phosphorylation of Erk1/2, Akt and STAT3. […]

VEGF = biological target: T1, VEGF (Homo sapiens, UniProt P15692); assay: Tryptophan fluorescence titration of VEGF; assay type: binding; conditions: emission at 334 nm
T1 sequence (P15692 27-191 isoform P15692-4): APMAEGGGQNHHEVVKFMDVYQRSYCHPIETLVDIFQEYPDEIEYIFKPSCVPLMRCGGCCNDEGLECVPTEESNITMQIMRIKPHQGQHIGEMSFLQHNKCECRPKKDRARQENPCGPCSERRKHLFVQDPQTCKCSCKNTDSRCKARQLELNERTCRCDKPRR
Method: FIGS. 2D and 2E illustrate that GFB-204 binds PDGF and VEGF as indicated by growth factor tryptophan when increased amounts of GFB204 were added to PDGF and VEGF, respectively. The fluorescence was monitored by excitation at 295 nm and 228 nm, respectively, and emission at 334 nm.
Both VEGF and PDGF contain tryptophans that fluoresce at […] when excited at […].

[2] = system: Human middle cerebral artery endothelial cells; assay: VEGF-induced capillary network formation on Matrigel; assay type: cell-based; conditions: Endothelial cell, VEGF 20 ng/ml
Method: FIGS. 4A-4C show the effects of GFB204 on angiogenesis in vitro. GFB204 inhibits capillary network formation in a dose-response manner (FIG. 4C). Human middle cerebral artery endothelial cells (5×10^4) were seeded onto Matrigel and the cells were incubated with VEGF in the presence (FIG. 4B) or absence (FIG. 4A) of GFB204 as described under Materials and Methods.
Capillary network formation. 200 μl of Matrigel was placed into each well of a 24-well culture plate at 4° C. and allowed to polymerize by incubation at 37° C. as described previously (Papadimitriou, E. et al. Biochem Biophys Res Commun, 2001, 282:306-13). Human middle cerebral artery endothelial cells (5×10^4) were seeded on the Matrigel in 1 ml of EBM containing VEGF (20 ng/ml). Each sample was photographed using a 10× objective lens, and quantified the total length of tube structures in each photograph using the Image Pro Plus software (Media Cybernetic, Inc., Md.).

A-549 xenografts = assay: CD31 IHC microvessel count in A-549 xenograft tumors; assay type: in vivo, nude mice; conditions: 5 mg/Kg, tumors processed two hours after last i.p. injection
Method: FIGS. 7A-7B illustrates CD31 IHC staining as described under Materials and Methods for tumors processed two hours after the last i.p. injection for a control (FIG. 7A) and GFB204 (FIG. 7B). Quantification of microvessels density (400×) was determined as described under Materials and Methods. SE, standard error. FIGS. 7A and 7B Microvessel Count; FIG. 7A=11.3±1.9; FIG. 7B=2.6±0.9.
IHC study. On the termination day of antitumor experiments, the tumors were extracted and fixed in 10% neutral buffered formalin for 6 hours. After fixation, the tissue samples were processed into paraffin blocks. Tissue sections (4 μm thick) were obtained from the parablocks and stained with hematoxylin and eosin (H&E) using standard histological techniques. Tissue sections were also subjected to immunostaining for CD31 (BD Biosciences, San Diego, Calif.) using the avidin biotin peroxidase complex technique (Blaskovich, M. A. et al. Nat Biotechnol, 2000, 18:1065-70). Mouse monoclonal antibody was used at 1:50 dilution, following microwave antigen retrieval (four cycles of 5 minutes each on high in 0.1M citrate buffer).

[3] = system: IGF-1-stimulated Erk1, Erk2, Akt and STAT3 phosphorylation; assay: IGF-1-stimulated phosphorylation of Erk1/2, Akt and STAT3 in IGF-1R/NIH 3T3 cells; assay type: cell-based, mouse; conditions: GFB204 10 μM
Method: as §1, §2

[4] = system: bFGF-stimulated Erk1, Erk2, Akt and STAT3 phosphorylation; assay: bFGF-stimulated phosphorylation of Erk1/2, Akt and STAT3 in NIH 3T3 cells; assay type: cell-based, mouse; conditions: GFB204 10 μM
Method: as §1, §2

CCCCOc1c2cc(C(=O)Nc3cc(C(=O)O)cc(C(=O)OCc4ccccc4)c3)cc1Cc1cc(C(=O)Nc3cc(C(=O)O)cc(C(=O)OCc4ccccc4)c3)cc(c1OCCCC)Cc1cc(C(=O)Nc3cc(C(=O)O)cc(C(=O)OCc4ccccc4)c3)cc(c1OCCCC)Cc1cc(C(=O)Nc3cc(C(=O)O)cc(C(=O)OCc4ccccc4)c3)cc(c1OCCCC)C2 [GFB204] was tested, and the “EGF-stimulation of the phosphorylation of Erk1, Erk2, Akt and STAT3” value [1] was “had little effect and not”, the “binding to VEGF by tryptophan fluorescence titration” value (VEGF) was “binds both PDGF and VEGF” and the IC50 [2] was 700 nM. The “microvessels per field (400×), CD31 staining” value (A-549 xenografts) was 2.6±0.9, the “IGF-1-stimulation of the phosphorylation of Erk1, Erk2, Akt and STAT3” value [3] was “had little effect and not” and the “bFGF-stimulation of the phosphorylation of Erk1, Erk2, Akt and STAT3” value [4] was “had little effect and not”.
